Earlier results, collected in US20090010992A1 (priority 2007, published 2009).

Settings: oral cherry-flavored syrup (Versed syrup)

In the case of Cc1ncc2n1-c1ccc(Cl)cc1C(c1ccccc1F)=NC2 [midazolam], the “bioavailability (erratic)” value is listed as 30-50%.
